Assay results as given in PubChem BioAssay AID328 (DTP/NCI, 2004).
Where “and” joins values, the source holds several entries; their conditions need not be identical. Equal entries are not always repeated. Toxic doses and inconclusive results are not listed.

System: BDF1 mice, P388 leukemia ip, median survival T/C
Assay: NCI In Vivo Anticancer Drug Screen. Data for tumor model P388 Leukemia (intraperitoneal) in B6D2F1 (BDF1) mice
Settings: endpoint: median survival time, higher = longer survival
Procedure, shortened: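 Compound-treated tumour-bearing mice were compared with vehicle-treated controls. Survival was recorded, and the value is the treated-group measurement divided by the control-group measurement (T/C).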

**Q.** Which results are given for COC(=O)[C@@H](O)[C@](O)(CCC(C)C)C(=O)O[C@@H]1C(OC)=C[C@]23CCCN2CCc2cc4c(cc2[C@H]13)OCO4?
**A.** T/C (dose: 0.25 mg/kg/injection, schedule: Q01DX009 (ip), vehicle: saline): 115 % of control; T/C (dose: 0.25 mg/kg/injection, schedule: Q03HX008 (ip), vehicle: saline): 115 % of control; T/C (dose: 0.25 mg/kg/injection, schedule: Q03HX016 (ip), vehicle: saline): 120 % of control; T/C (dose: 0.38 mg/kg/injection, schedule: Q01DX010 (ip), vehicle: saline): 118 % of control; T/C (dose: 0.41 mg/kg/injection, schedule: Q01DX009 (ip), vehicle: saline): 108 % of control; T/C (dose: 0.5 mg/kg/injection, schedule: Q01DX006 (iv), vehicle: saline): 100 % of control; T/C (dose: 0.5 mg/kg/injection, schedule: Q01DX009 (ip), vehicle: saline): 110 % of control; T/C (dose: 0.5 mg/kg/injection, schedule: Q01DX009 (oral), vehicle: saline): 110 % of control; T/C (dose: 0.5 mg/kg/injection, schedule: Q01DX009 (sc), vehicle: saline): 110 % of control; T/C (dose: 0.5 mg/kg/injection, schedule: Q03HX008 (ip), vehicle: saline): 110 % of control; T/C (dose: 0.5 mg/kg/injection, schedule: Q03HX016 (ip), vehicle: saline): 120 % of control; T/C (dose: 0.62 mg/kg/injection, schedule: Q01DX009 (ip), vehicle: saline): 108 % of control; T/C (dose: 1.0 mg/kg/injection, schedule: Q01DX006 (iv), vehicle: saline): 110 % of control; T/C (dose: 1.0 mg/kg/injection, schedule: Q01DX009 (ip), vehicle: saline): 120 % of control; T/C (dose: 1.0 mg/kg/injection, schedule: Q01DX009 (oral), vehicle: saline): 110 % of control; T/C (dose: 1.0 mg/kg/injection, schedule: Q01DX009 (sc), vehicle: saline): 110 % of control; T/C (dose: 1.0 mg/kg/injection, schedule: Q03HX008 (ip), vehicle: saline): 120 % of control; T/C (dose: 1.0 mg/kg/injection, schedule: Q03HX024 (ip), vehicle: saline): 200 % of control; T/C (dose: 1.0 mg/kg/injection, schedule: Q04DX003 (ip), vehicle: saline): 110 % of control; T/C (dose: 1.5 mg/kg/injection, schedule: Q01DX009 (ip), vehicle: saline): 118 % of control; T/C (dose: 1.87 mg/kg/injection, schedule: Q01DX009 (ip), vehicle: water): 150 % of control and 161 % of control; T/C (dose: 2.0 mg/kg/injection, schedule: Q01DX001 (ip), vehicle: saline): 100 % of control; T/C (dose: 2.0 mg/kg/injection, schedule: Q01DX001 (iv), vehicle: saline): 110 % of control; T/C (dose: 2.0 mg/kg/injection, schedule: Q01DX001 (oral), vehicle: saline): 110 % of control; T/C (dose: 2.0 mg/kg/injection, schedule: Q01DX001 (sc), vehicle: saline): 110 % of control; T/C (dose: 2.0 mg/kg/injection, schedule: Q01DX006 (iv), vehicle: saline): 120 % of control; T/C (dose: 2.0 mg/kg/injection, schedule: Q01DX009 (ip), vehicle: saline): 120 % of control; T/C (dose: 2.0 mg/kg/injection, schedule: Q01DX009 (oral), vehicle: saline): 110 % of control; T/C (dose: 2.0 mg/kg/injection, schedule: Q01DX009 (sc), vehicle: saline): 115 % of control; T/C (dose: 2.0 mg/kg/injection, schedule: Q03HX016 (ip), vehicle: saline): 177 % of control; T/C (dose: 2.0 mg/kg/injection, schedule: Q03HX024 (ip), vehicle: saline): 222 % of control; T/C (dose: 2.0 mg/kg/injection, schedule: Q04DX003 (ip), vehicle: saline): 115 % of control; T/C (dose: 2.0 mg/kg/injection, schedule: Q08DX002 (ip), vehicle: saline): 110 % of control; T/C (dose: 3.0 mg/kg/injection, schedule: Q01DX010 (ip), vehicle: saline): 181 % of control; T/C (dose: 3.75 mg/kg/injection, schedule: Q01DX009 (ip), vehicle: water): 172 % of control and 188 % of control; T/C (dose: 4.0 mg/kg/injection, schedule: Q01DX001 (ip), vehicle: saline): 110 % of control; T/C (dose: 4.0 mg/kg/injection, schedule: Q01DX001 (iv), vehicle: saline): 105 % of control; T/C (dose: 4.0 mg/kg/injection, schedule: Q01DX001 (oral), vehicle: saline): 110 % of control; T/C (dose: 4.0 mg/kg/injection, schedule: Q01DX001 (sc), vehicle: saline): 110 % of control; T/C (dose: 4.0 mg/kg/injection, schedule: Q03HX008 (ip), vehicle: saline): 166 % of control; T/C (dose: 4.0 mg/kg/injection, schedule: Q04DX003 (ip), vehicle: saline): 110 % of control; T/C (dose: 4.0 mg/kg/injection, schedule: Q08DX002 (ip), vehicle: saline): 105 % of control; T/C (dose: 6.0 mg/kg/injection, schedule: Q01DX009 (ip), vehicle: saline): 163 % of control; T/C (dose: 6.0 mg/kg/injection, schedule: Q01DX010 (ip), vehicle: saline): 182 % of control; T/C (dose: 7.5 mg/kg/injection, schedule: Q01DX009 (ip), vehicle: saline): 195 % of control; T/C (dose: 7.5 mg/kg/injection, schedule: Q01DX009 (ip), vehicle: water): 266 % of control and 272 % of control; T/C (dose: 8.0 mg/kg/injection, schedule: Q01DX001 (ip), vehicle: saline): 110 % of control; T/C (dose: 8.0 mg/kg/injection, schedule: Q01DX001 (iv), vehicle: saline): 110 % of control; T/C (dose: 8.0 mg/kg/injection, schedule: Q01DX001 (oral), vehicle: saline): 105 % of control; T/C (dose: 8.0 mg/kg/injection, schedule: Q01DX001 (sc), vehicle: saline): 100 % of control; T/C (dose: 8.0 mg/kg/injection, schedule: Q01DX006 (iv), vehicle: saline): 188 % of control; T/C (dose: 8.0 mg/kg/injection, schedule: Q01DX009 (ip), vehicle: saline): 235 % of control and 172 % of control and 222 % of control; T/C (dose: 8.0 mg/kg/injection, schedule: Q01DX009 (oral), vehicle: saline): 200 % of control; T/C (dose: 8.0 mg/kg/injection, schedule: Q01DX009 (sc), vehicle: saline): 200 % of control and 205 % of control; T/C (dose: 12.0 mg/kg/injection, schedule: Q01DX010 (ip), vehicle: saline): 208 % of control; T/C (dose: 15.0 mg/kg/injection, schedule: Q01DX009 (ip), vehicle: water): 105 % of control; T/C (dose: 16.0 mg/kg/injection, schedule: Q01DX001 (ip), vehicle: saline): 110 % of control; T/C (dose: 16.0 mg/kg/injection, schedule: Q01DX001 (iv), vehicle: saline): 120 % of control; T/C (dose: 16.0 mg/kg/injection, schedule: Q01DX001 (oral), vehicle: saline): 115 % of control; T/C (dose: 16.0 mg/kg/injection, schedule: Q01DX001 (sc), vehicle: saline): 110 % of control; T/C (dose: 16.0 mg/kg/injection, schedule: Q01DX009 (ip), vehicle: saline): 305 % of control and 209 % of control; T/C (dose: 16.0 mg/kg/injection, schedule: Q01DX009 (oral), vehicle: saline): 161 % of control; T/C (dose: 16.0 mg/kg/injection, schedule: Q01DX009 (sc), vehicle: saline): 105 % of control; T/C (dose: 16.0 mg/kg/injection, schedule: Q04DX003 (ip), vehicle: saline): 150 % of control; T/C (dose: 24.0 mg/kg/injection, schedule: Q01DX010 (ip), vehicle: saline): 252 % of control; T/C (dose: 32.0 mg/kg/injection, schedule: Q08DX002 (ip), vehicle: saline): 111 % of control; T/C (dose: 125.0 micrograms/kg/injection, schedule: Q03HX024 (ip), vehicle: saline): 100 % of control; T/C (dose: 250.0 micrograms/kg/injection, schedule: Q03HX024 (ip), vehicle: saline): 110 % of control; T/C (dose: 500.0 micrograms/kg/injection, schedule: Q03HX024 (ip), vehicle: saline): 120 % of control
